Experimental data from patent publication US9150592B2, “Heterocyclic nuclear hormone receptor modulators” (AbbVie Inc., priority 2012, dated 2015).

Key:
[1] = tested on: IL-6 in A549 cells stimulated with IL-1β; experiment: A549 Cell Assay to Measure Inflammation Markers (inhibition of IL-1β-induced IL-6); type: cell-based; conditions: Homo sapiens, intrinsic activity, Emax class ranges
Outline: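 Compound pre-incubated with A549 cells 1 h at 37 °C, then stimulated with IL-1β (1 ng/mL final, 0.1% DMSO). Supernatant IL-6 quantified by MSD immunoassay after a further incubation. IC50 and Emax derived.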

[2] = target: T1, Glucocorticoid Receptor (GR) (Homo sapiens, UniProt P04150); experiment: GR Fluorescence Polarization Assay (PolarScreen Glucocorticoid Receptor Competitor Assay, Red); conditions: IC50 class ranges, read-out: GR binding
T1 construct: purchased Invitrogen P2893
T1 sequence (P04150 1-777): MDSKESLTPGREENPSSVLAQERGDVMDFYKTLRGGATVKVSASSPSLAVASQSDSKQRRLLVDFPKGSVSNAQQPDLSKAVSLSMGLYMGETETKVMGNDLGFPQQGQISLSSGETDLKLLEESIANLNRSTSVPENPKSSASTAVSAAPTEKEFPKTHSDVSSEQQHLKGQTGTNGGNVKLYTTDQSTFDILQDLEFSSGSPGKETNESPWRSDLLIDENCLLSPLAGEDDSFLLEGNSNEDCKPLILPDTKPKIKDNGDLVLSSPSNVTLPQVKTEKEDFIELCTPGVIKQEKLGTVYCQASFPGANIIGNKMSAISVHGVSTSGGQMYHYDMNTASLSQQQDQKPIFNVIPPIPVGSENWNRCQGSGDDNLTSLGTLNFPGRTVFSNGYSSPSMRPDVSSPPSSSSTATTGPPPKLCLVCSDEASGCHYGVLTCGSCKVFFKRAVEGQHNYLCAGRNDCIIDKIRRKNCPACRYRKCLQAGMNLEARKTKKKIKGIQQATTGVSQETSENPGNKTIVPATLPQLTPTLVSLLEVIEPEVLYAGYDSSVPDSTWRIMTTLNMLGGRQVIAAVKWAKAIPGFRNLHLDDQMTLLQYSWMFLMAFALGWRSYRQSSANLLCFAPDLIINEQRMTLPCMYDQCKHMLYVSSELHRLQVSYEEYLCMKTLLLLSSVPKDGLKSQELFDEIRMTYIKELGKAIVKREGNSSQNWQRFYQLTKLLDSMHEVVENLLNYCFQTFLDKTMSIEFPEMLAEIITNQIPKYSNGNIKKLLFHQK
Outline: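 Competitive fluorescence-polarization assay using a red fluorescent glucocorticoid tracer with human GR in kit buffer. Compounds serially diluted 1:4 in DMSO, incubated with tracer and GR overnight at 4° C, then polarization read.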

[3] = A549, A549 Cell Assay to Measure Inflammation Markers

Cc1cc(C#CCO)ccc1[C@@H]1SC[C@H](C)Nc2c1c(-c1ccccn1)nn2C (single isomer, unassigned) [M.71, 3-(4-(1,7-dimethyl-3-(pyridin-2-yl)-4,6,7,8-tetrahydro-1H-pyrazolo[3,4-e][1,4]thiazepin-4-yl)-3-methylphenyl)prop-2-yn-1-ol]
Emax [1, 3]: < 50% | IC50 [2]: < 100 nM

CCn1nc(-c2ccccn2)c2c1NC(=O)CCC2c1ccc(Br)cc1C (centres unmarked) [AA.1, 4-(4-Bromo-2-methylphenyl)-1-ethyl-3-(pyridin-2-yl)-4,5,6,8-tetrahydropyrazolo[3,4-b]azepin-7(1H)-one]
Emax [1, 3]: < 50% | IC50 [2]: < 100 nM

CCn1nc(-c2ccccn2)c2c1NCCCC2c1ccc(Br)cc1C (centres unmarked) [BB.1, 4-(4-bromo-2-methylphenyl)-1-ethyl-3-(pyridin-2-yl)-1,4,5,6,7,8-hexahydropyrazolo[3,4-b]azepine]
Emax [1, 3]: > 70% | IC50 [2]: < 100 nM

Cn1nc(-c2ccccn2)c2c1NC(=O)CSC2c1ccc(Br)cc1Cl (centres unmarked) [C.2, 4-(4-bromo-2-chloro-phenyl)-1-methyl-3-(2-pyridyl)-4,8-dihydropyrazolo[3,4-e][1,4]thiazepin-7-one]
Emax ([1]; A549 Cell Assay to Measure Inflammation Markers): < 50% | IC50 [2]: 100 to 1000 nM

Cc1cc(Cl)ccc1C1SCCNc2c1c(-c1ccccn1)nn2C (centres unmarked) [D.1, 4-(4-chloro-2-methyl-phenyl)-1-methyl-3-(2-pyridyl)-4,6,7,8-tetrahydro-pyrazolo[3,4-e][1,4]thiazepine]
Emax [1, 3]: > 60% | IC50 [2]: < 100 nM

Cn1nc(-c2ccccn2)c2c1NCCSC2c1c(Cl)cccc1Cl (centres unmarked) [D.2]
Emax [1, 3]: < 50% | IC50 [2]: 1000 to 10000 nM

Cn1nc(-c2ccccn2)c2c1NCCSC2c1ccc(Cl)cc1C(F)(F)F (centres unmarked) [D.3]
Emax [1, 3]: < 50% | IC50 [2]: < 100 nM

Cc1nn(C)c2c1C(c1ccc(Cl)cc1Cl)SC(C)(C)CN2 (centres unmarked) [D.4, 4-(2,4-dichlorophenyl)-1,3,6,6-tetramethyl-7,8-dihydro-4H-pyrazolo[3,4-e][1,4]thiazepine]
Emax [1, 3]: < 50% | IC50 [2]: < 100 nM

COc1cc(Cl)ccc1C1SCCNc2c1c(-c1ccccn1)nn2C (centres unmarked) [D.5]
Emax [1, 3]: < 50% | IC50 [2]: < 100 nM

CN(C)c1ccc(C2SCCNc3c2c(-c2ccccn2)nn3C)c(Cl)c1 (centres unmarked) [D.6]
Emax [1, 3]: < 50% | IC50 [2]: 100 to 1000 nM

Cn1nc(-c2ccccn2)c2c1NCCSC2c1ccncc1Cl (centres unmarked) [D.7]
Emax [1, 3]: < 50% | IC50 [2]: < 100 nM

Cn1nc(-c2ccccn2)c2c1NCCSC2c1ccc(Cl)cc1Cl (centres unmarked) [D.8, 4-(2,4-dichlorophenyl)-1-methyl-3-(2-pyridyl)-4,6,7,8-tetrahydropyrazolo[3,4-e][1,4]thiazepine]
Emax [1, 3]: < 50% | IC50 [2]: < 100 nM

Cc1ccc(C2SCCNc3c2c(-c2ccccn2)nn3C)c(C)c1 (centres unmarked) [D.9]
Emax [1, 3]: < 50% | IC50 [2]: < 100 nM

COc1ccc(C2SCCNc3c2c(-c2ccccn2)nn3C)c(C)c1 (centres unmarked) [D.10]
Emax [1, 3]: < 50% | IC50 [2]: < 100 nM

Cc1cc(F)ccc1C1SCCNc2c1c(-c1ccccn1)nn2C (centres unmarked) [D.11]
Emax [1, 3]: > 50% | IC50 [2]: < 100 nM

Cc1cc(OC(F)(F)F)ccc1C1SCCNc2c1c(-c1ccccn1)nn2C (centres unmarked) [D.12]
Emax [1, 3]: < 50% | IC50 [2]: < 100 nM

Cc1cc(Cl)ccc1C1SCCNc2nn(C)cc21 (centres unmarked) [D.13]
Emax [1, 3]: < 50% | IC50 [2]: 1000 to 10000 nM

Cc1ccccc1C1SCCNc2c1c(-c1ccccn1)nn2C (centres unmarked) [D.14]
Emax [1, 3]: < 50% | IC50 [2]: < 100 nM

Cn1nc(-c2ccc(Br)cn2)c2c1NCCSC2c1ccc(Cl)cc1Cl (centres unmarked) [D.15, 3-(5-bromo-2-pyridyl)-4-(2,4-dichlorophenyl)-1-methyl-4,6,7,8-tetrahydropyrazolo[3,4-e][1,4]thiazepine]
Emax [1, 3]: < 50% | IC50 [2]: < 100 nM

Cn1nc(-c2nccs2)c2c1NCCSC2c1ccc(Cl)cc1Cl (centres unmarked) [D.16]
Emax [1, 3]: < 50% | IC50 [2]: < 100 nM

Cn1nc(-c2nccs2)c2c1NCC(C)(C)SC2c1ccc(Cl)cc1Cl (centres unmarked) [D.17]
Emax [1, 3]: < 50% | IC50 [2]: 100 to 1000 nM

Cn1nc(-c2ccncc2)c2c1NCCSC2c1ccc(Cl)cc1Cl (centres unmarked) [D.18]
Emax [1, 3]: < 50% | IC50 [2]: 100 to 1000 nM

Cc1cc(Cl)ccc1C1SCCNc2c1c(-c1cc(Br)ccn1)nn2C (centres unmarked) [D.19]
Emax [1, 3]: < 50% | IC50 [2]: < 100 nM

Cc1ccc(C)c(C2SCCNc3c2c(-c2ccccn2)nn3C)c1 (centres unmarked) [D.20]
Emax [1, 3]: < 50% | IC50 [2]: < 100 nM

Cc1cc(Cl)cnc1C1SCCNc2c1c(-c1ccccn1)nn2C (centres unmarked) [D.21]
Emax [1, 3]: < 50% | IC50 [2]: 100 to 1000 nM

COc1ccnc(-c2nn(C)c3c2C(c2ccc(Cl)cc2C)SCCN3)c1 (centres unmarked) [D.22]
Emax [1, 3]: < 50% | IC50 [2]: < 100 nM

Cn1nc(-c2ccccn2)c2c1NCCSC2c1ccc(Cl)cc1 (centres unmarked) [D.23]
Emax [1, 3]: < 50% | IC50 [2]: 100 to 1000 nM

Cc1cc(Cl)ccc1C1SCCNc2c1c(-c1cc(Cl)ccn1)nn2C (centres unmarked) [D.24]
Emax [1, 3]: < 50% | IC50 [2]: < 100 nM

Cn1nc(-c2ccccn2)c2c1NCCSC2c1ccc(Br)cc1 (centres unmarked) [D.25, 4-(4-bromophenyl)-1-methyl-3-(2-pyridyl)-4,6,7,8-tetrahydropyrazolo[3,4-e][1,4]thiazepine]
Emax [1, 3]: < 50% | IC50 [2]: 100 to 1000 nM

Cc1cc(Br)sc1C1SCCNc2c1c(-c1ccccn1)nn2C (centres unmarked) [D.26, 4-(5-bromo-3-methyl-2-thienyl)-1-methyl-3-(2-pyridyl)-4,6,7,8-tetrahydropyrazolo[3,4-e][1,4]thiazepine]
Emax [1, 3]: < 50% | IC50 [2]: < 100 nM

Cc1ccc(Br)cc1C1SCCNc2c1c(-c1ccccn1)nn2C (centres unmarked) [D.27, 4-(5-bromo-2-methyl-phenyl)-1-methyl-3-(2-pyridyl)-4,6,7,8-tetrahydropyrazolo[3,4-e][1,4]thiazepine]
Emax [1, 3]: < 50% | IC50 [2]: < 100 nM

COc1ccc(C)c(C2SCCNc3c2c(-c2ccccn2)nn3C)c1 (centres unmarked) [D.28]
Emax [1, 3]: < 50% | IC50 [2]: 1000 to 10000 nM

Cc1cc(-c2nn(C)c3c2C(c2ccc(Br)cc2C)SCCN3)on1 (centres unmarked) [D.29]
Emax [1, 3]: < 50% | IC50 [2]: < 100 nM

CCn1nc(-c2ccccn2)c2c1NCCSC2c1ccc(Br)cc1C (centres unmarked) [D.30, 4-(4-bromo-2-methyl-phenyl)-1-ethyl-3-(2-pyridyl)-4,6,7,8-tetrahydropyrazolo[3,4-e][1,4]thiazepine]
Emax [1, 3]: > 70% | IC50 [2]: < 100 nM

CN(C)c1ccc(-c2nn(C)c3c2C(c2ccc(Cl)cc2Cl)SCCN3)cc1 (centres unmarked) [D.31]
Emax [1, 3]: < 50% | IC50 [2]: 1000 to 10000 nM

Cn1nc(-c2ccccn2)c2c1NCC(C)(C)SC2c1ccc(Cl)cc1Cl (centres unmarked) [D.32]
Emax [1, 3]: < 50% | IC50 [2]: < 100 nM

Cc1cccc(C2SCCNc3c2c(-c2ccccn2)nn3C)c1C (centres unmarked) [D.33]
Emax [1, 3]: < 50% | IC50 [2]: 100 to 1000 nM

Cc1sc(Br)cc1C1SCCNc2c1c(-c1ccccn1)nn2C (centres unmarked) [D.34, 4-(5-bromo-2-methyl-3-thienyl)-1-methyl-3-(2-pyridyl)-4,6,7,8-tetrahydropyrazolo[3,4-e][1,4]thiazepine]
Emax [1, 3]: < 50% | IC50 [2]: < 100 nM

COc1cc(C2SCCNc3c2c(-c2ccccn2)nn3C)c(C)cc1Cl (centres unmarked) [D.35]
Emax [1, 3]: < 50% | IC50 [2]: 1000 to 10000 nM

Cn1nc(-c2ccccn2)c2c1NCCSC2Cc1ccccc1 (centres unmarked) [D.36]
Emax [1, 3]: < 50% | IC50 [2]: > 10000 nM

Cn1nc(-c2ccccn2)c2c1NCCSC2c1ccc(Cl)cc1Br (centres unmarked) [D.37, 4-(2-bromo-4-chloro-phenyl)-1-methyl-3-(2-pyridyl)-4,6,7,8-tetrahydropyrazolo[3,4-e][1,4]thiazepine]
Emax [1, 3]: > 50% | IC50 [2]: < 100 nM

Cn1nc(-c2ccccn2)c2c1NCCSC2c1ccc(Cl)cc1C1CC1 (centres unmarked) [D.38]
Emax [1, 3]: > 50% | IC50 [2]: < 100 nM

Cn1nc(-c2ccccn2)c2c1NCCSC2c1ccc(Cl)cc1CF (centres unmarked) [D.39]
Emax [1, 3]: > 60% | IC50 [2]: < 100 nM
